Experimental findings from patent publication US20160007600A1, “SYNTHETIC LIPOCHITOOLIGOSACCHARIDE ANALOGS FOR ENHANCING PLANT PERFORMANCE” (E.I. DU PONT DE NEMOURS AND COMPANY, priority 2013, published 2016) are described below.

For test [1], the system named is soybean seeds. The experiment in a line: Seed germination assay. It is filed as in vivo. The settings on record: for germination in 24 hours: test compound 10^−7 M in DI-water, 24 hr in dark at room temperature, radicle emergence as indicator, five repeats of 20 seeds. The procedure:
Materials were all sterilized before use. An aqueous solution of the test compound (25 mL, 10^−7 M in DI-water) was prepared for a set of five repeat experiments. Five Petri dishes and 100 soybean seeds were used to test one compound. A piece of Whatman filter paper was used to cover the inner side of each Petri dish to allow uniform distribution of testing solution. Twenty soybean seeds were placed on the filter paper area of one Petri dish. 5 mL of the test compound solution was carefully poured in the Petri dish. Control experiments were set up the same way with 20 soybean seeds and 5 mL of DI-water per dish without any compounds. The lid was placed on the Petri dish and was sealed with Para-film. Five dishes with repeat experiments were stacked. One stack of dishes was wrapped twice with aluminum foil to prevent the seeds receiving any light. The stacks were transferred to an incubator maintained at room temperature and the seeds were germinated in dark. After 24 hr, the stacks were pulled out for measurement. The number of germinated seeds was counted and the percent of germination on each dish was calculated. Radicle emergence was used as the germination indicator. The dishes were placed unwrapped at room temperature for one day and the number of germinated seeds was counted to assure seeds were able to germinate and different germination yields were not caused by bad seed quality. Seeds showing above 90% of germination were considered normal. The standard deviation of five repeats was calculated. Test results with 10% or lower standard deviation was considered good. Compounds acting as plant performance enhancers should promote a significant increase in average percentage of germination compared to the control above the standard deviation.

The subject of test [2] is soybean seeds. The test is described as follows: Plant growth assay (radical length of germinating seed). It is filed as in vivo. The conditions noted are these: soybean seeds germinated 24 hr with 10^−7 M compound, then additional 40 hr open to light at room temperature. As for the experimental part: Plant growth assay Seeds germinated for 24 hr using the seed germination assay above were left open to light for another 40 hr. The radical length was measured and the percentage of germinating seed with radical length of greater than 1.5 cm was determined.

Take `CO[C@@H]1O[C@H](CO)[C@@H](O)[C@H](O)[C@H]1NC(=O)/C=C/c1cccc(C(F)(F)F)c1` [Example 4, (E)-N-((2R,3R,4R,5S,6R)-4,5-dihydroxy-6-(hydroxymethyl)-2-methoxytetrahydro-2H-pyran-3-yl)-3-(3-(trifluoromethyl)phenyl)acrylamide]: the “germination in 24 hours” value in the test with soybean seeds [1] worked out at 75%. Besides, the “germinating seed with radical length longer than 1.5 cm” value (“germinating seed” for short) with soybean seeds [2] is on record as 69%.

On to `CO[C@@H]1O[C@H](CO)[C@@H](O)[C@H](O)[C@H]1N` [(2R,3S,4R,5R,6R)-5-amino-2-(hydroxymethyl)-6-methoxytetrahydro-2H-pyran-3,4-diol, reference compound], for which, in the test on soybean seeds [1] (conclusion from the germination and plant growth assays), the “efficacy for enhanced seed germination and radical growth (summary in words)” value was “insignificant efficacy”. For the same compound, in the test with soybean seeds [1], the “germination in 24 hours” value worked out at 53%. In the test with soybean seeds [2], the “germinating seed” value is listed as 45%.

As to `CO[C@@H]1O[C@H](CO)[C@@H](O)[C@H](O)[C@H]1NC(=O)/C=C/c1ccc(C)cc1` [Example 2, (E)-N-((2R,3R,4R,5S,6R)-4,5-dihydroxy-6-(hydroxymethyl)-2-methoxytetrahydro-2H-pyran-3-yl)-3-(p-tolyl)acrylamide], the “germination in 24 hours” value in the test on soybean seeds [1] is reported as 70%. Besides, the “germinating seed” value in the test with soybean seeds [2] is 66%.

On to `CO[C@@H]1O[C@H](CO)[C@@H](O)[C@H](O)[C@H]1NC(=O)/C=C/c1cccc(C)c1` [Example 3, (E)-N-((2R,3R,4R,5S,6R)-4,5-dihydroxy-6-(hydroxymethyl)-2-methoxytetrahydro-2H-pyran-3-yl)-3-(m-tolyl)acrylamide], for which, in the test on soybean seeds [1], the “germination in 24 hours” value is reported as 61%. Further, the “germinating seed” value with soybean seeds [2] amounted to 56%.

For `CO[C@@H]1O[C@H](CO)[C@@H](O)[C@H](O)[C@H]1NC(=O)C#Cc1ccccc1` [Example 5, N-((2R,3R,4R,5S,6R)-4,5-dihydroxy-6-(hydroxymethyl)-2-methoxytetrahydro-2H-pyran-3-yl)-3-phenylpropiolamide], the “germination in 24 hours” value in the test on soybean seeds [1] was 86%. Further, in the test on soybean seeds [2], the “germinating seed” value is recorded as 95%.

As to `CO[C@@H]1O[C@H](CO)[C@@H](O)[C@H](O)[C@H]1NC(=O)/C=C/C=C/c1ccccc1` [Example 1, (2E,4E)-N-((2R,3R,4R,5S,6R)-4,5-dihydroxy-6-(hydroxymethyl)-2-methoxytetrahydro-2H-pyran-3-yl)-5-phenylpenta-2,4-dienamide], in the test on soybean seeds [1], the “germination in 24 hours” value is recorded as 75%. Also, the “germinating seed” value in the test with soybean seeds [2] amounted to 69%.
